Results reported in patent US7569724B2, “Carbamic acid compounds comprising an amide linkage as HDAC inhibitors” (Topotarget UK Limited, priority 2000, dated 2009).
Counter-ions that a name gives are not always drawn. Like-named read-outs stand apart in the source and are kept apart here.

Assays:
HDAC (HeLa cell extract) = assay: Primary assay: deacetylase activity, HeLa cell extract as source of HDAC; assay type: biochemical, human; details: HeLa cell extract
Description: Briefly, this assay relies on the release of radioactive acetate from a radioactively labelled histone fragment by the action of HDAC enzyme. Test compounds, which inhibit HDAC, reduce the yield of radioactive acetate. Signal (e.g., scintillation counts) measured in the presence and absence of a test compound provide an indication of that compound's ability to inhibit HDAC activity. Decreased activity indicates increased inhibition by the test compound.
The histone fragment was an N-terminal sequence from histone H4, and it was labelled with radioactively labelled acetyl groups using tritiated acetylcoenzyme A (coA) in conjunction with an enzyme which is the histone acetyltransferase domain of the transcriptional coactivator p300. […] The acetylated peptide was then separated from free acetyl coA by size exclusion chromatography on Sephadex G-15 (Sigma G-15-120), using distilled H2O as the mobile phase.
After purification of the radiolabelled histone fragment, it was incubated with a source of HDAC (e.g., an extract of HeLa cells (a rich source of HDAC), recombinantly produced HDAC1 or HDAC2) and any released acetate was extracted into an organic phase and quantitatively determined using scintillation counting. By including a test compound with the source of HDAC, that compound's ability to inhibit the HDAC was determined.
The HeLa cell extract was made from HeLa cells (ATCC Ref. No. CCL-2) by freeze-thawing three times in 60 mM TrisCl pH 8.0, 450 mM NaCl, 30% glycerol. Two cell volumes of extraction buffer were used, and particulate material was centrifuged out (20800 g, 4° C., 10 min). The supernatant extract having deacetylase activity was aliquotted and frozen for storage.
A source of HDAC (e.g., 2 μL of crude HeLa extract, 5 μL of HDAC1 or HDAC2; in elution buffer, as above) was incubated with 3 μL of radioactively labelled peptide along with appropriate dilutions of candidate compounds (1.5 μL) in a total volume of 150 μL of buffer (20 mM Tris pH 7.4, 10% glycerol). The reaction was carried out at 37° C. for one hour, after which the reaction was stopped by adding 20 μL of 1 M HCl/0.4 M sodium acetate. […] Radioactivity was measured using a Tri-Carb 2100TR Liquid Scintillation Analyzer (Packard).
Percent activity (% activity) for each test compound was calculated as: % activity={(S^C−B)/(S^o−B)}×100 wherein S^C denotes signal measured in the presence of enzyme and the compound being tested, S^o denotes signal measured in the presence of enzyme but in the absence of the compound being tested, and B denotes the background signal measured in the absence of both enzyme and compound being tested.

HeLa cells = assay: Secondary assay: cell proliferation WST-1, HeLa; assay type: cell-based; details: Homo sapiens, 48 h, read-out: Cell Proliferation Inhibition WST-1 (IC50 unless otherwise specified) HeLa
Experimental: Compounds with HDAC inhibition activity, as determined using the primary assay, were subsequently evaluated using secondary cell-based assays. The following cell lines were used:
HeLa—Human cervical adenocarcinoma cell line (ATCC ref. No. CCL-2).
Cells were plated in 96-well plates at 3-10×10^3 cells/well in 100 μL of culture medium. The following day, different concentrations of candidate compounds were added and the cells incubated at 37° C. for 48 h. Subsequently, 10 μL/well of WST-1 reagent was added and the cells reincubated for 1 hour. After the incubation time, absorbance was measured.
WST-1 is a tetrazolium salt which is cleaved to formazan dye by cellular enzymes. An expansion in the number of viable cells results in an increase in the overall activity of mitochondrial dehydrogenases in the sample. This augmentation in the enzyme activity leads to an increase in the amount of formazan dye formed, which directly correlates to the number of metabolically active cells in the culture. The formazan dye produced is quantified by a scanning multiwell spectrophotometer by measuring the absorbance of the dye solution at 450 nm wavelength (reference wavelength 690 nm).
Percent activity (% activity) in reducing the number of viable cells was calculated for each test compound as: % activity={(S^C−B)/(S^o−B)}×100 wherein S^C denotes signal measured in the presence of the compound being tested, S^o denotes signal measured in the absence of the compound being tested, and B denotes the background signal measured in blank wells containing medium only.
IC50 values were calculated using the software package Prism 3.0 (GraphPad software Inc., San Diego, Calif.), setting top value at 100 and bottom value at 0.

[1] = read-out: HDAC Inhibition (IC50 unless otherwise specified) HeLa
[2] = comparative tables, no unit in cell, read-out: HeLa IC50
[3] = comparative tables, read-out: HeLa IC50

Row | SMILES | HDAC Inhibition HeLa, percent (HDAC (HeLa cell extract); @ 1 μM) | HDAC Inhibition HeLa, percent (HDAC (HeLa cell extract); @ 500 nM) | further results
1 | CN(C)c1ccc(CC(=O)NCCCC(=O)NO)cc1 [PX082532, 4-(2-(4-Dimethylamino-phenyl)-acetylamino)-N-hydroxy-butyramide] | 21% @ 1 μM |  | 
2 | CN(C)c1ccc(C(=O)NCCCC(=O)NO)c2ccccc12 [PX082533] | 2% @ 1 μM |  | percent HDAC inhibition at the stated concentration (HDAC (HeLa cell extract); comparative tables, @ 1 μM): 2% @ 1 μM
3 | COc1ccc(NC(=O)CCCC(=O)NO)cc1 [PX082546, Pentanedioic acid hydroxyamide (4-methoxy-phenyl)-amide] | 36% @ 1 μM |  | 
4 | CC(C)c1ccc(NC(=O)CCCC(=O)NO)cc1 [PX082548, Pentanedioic acid hydroxyamide (4-isopropyl-phenyl)-amide] | 41% @ 1 μM |  | 
5 | COc1ccc(NC(=O)CCCC(=O)NO)cc1OC [PX082549, Pentanedioic acid (3,4-dimethoxy-phenyl)-amide hydroxyamide] | 43% @ 1 μM |  | 
6 | CN(C)c1ccc(/C=C/C(=O)NCCCC(=O)NO)cc1 [PX083447, 4-(3-(4-Dimethylamino-phenyl)-acryoylamino)-N-hydroxy-butyramide] | 15% @ 1 μM |  | 
7 | O=C(/C=C/C=C/c1ccccc1)NCCC(=O)NO [PX083448] |  |  | IC50 (HDAC (HeLa cell extract); [1]): > 1000 nM; IC50 (HDAC (HeLa cell extract); [2]): > 1000 nM
8 | O=C(/C=C/c1ccc([N+](=O)[O-])cc1)NCCCC(=O)NO [PX083803, N-Hydroxy-4-(3-4-(nitro-phenyl)-acryoylamino)-butyramide] | 15% @ 1 μM |  | 
9 | O=C(/C=C/c1ccc(C(F)(F)F)cc1)NCCCC(=O)NO [PX083804, N-Hydroxy-4-(3-4-(trifluoromethyl-phenyl)-acryoylamino)-butyramide] | 14% @ 1 μM |  | 
10 | O=C(/C=C/c1ccccc1)NCCC(=O)NO [PX083806] | 19% @ 1 μM |  | 
11 | O=C(/C=C/c1ccc([N+](=O)[O-])cc1)NCCC(=O)NO [PX083807, N-(2-Hydroxycarbamoyl-ethyl)-3-(4-nitro-phenyl)-acryamide] | 9% @ 1 μM |  | 
12 | O=C(/C=C/C=C/c1ccccc1)NCCCC(=O)NO [PX083808] |  |  | IC50 (HDAC (HeLa cell extract); [1]): 20000 nM; IC50 (HDAC (HeLa cell extract); [2]): > 20000 nM
13 | COc1ccc(C(=O)NCCCCC(=O)NO)cc1 [PX089048, N-(4-Hydroxycarbamoyl-butyl)-4-methoxy-benzamide] | 34% @ 1 μM |  | 
14 | O=C(CCCCNC(=O)c1ccccc1)NO [PX089049, N-(4-Hydroxycarbamoyl-butyl)-benzamide] |  |  | IC50 (HDAC (HeLa cell extract); [1]): > 1000 nM
15 | CN(C)c1ccc(C(=O)NCCCCCC(=O)NO)cc1 [PX089274, 4-Dimethylamino-N-(5-hydroxycarbamoyl-pentyl)-benzamide] |  |  | IC50 (HeLa cells): 4400 nM; IC50 (HDAC (HeLa cell extract); [1]): 109 nM; IC50 (HDAC (HeLa cell extract); [3]): 110 nM
16 | O=C(/C=C/c1ccc(C(F)(F)F)cc1)NCCC(=O)NO [PX089283, N-(2-Hydroxycarbamoyl-ethyl)-3-(4-trifluoromethyl-phenyl)-acryamide] | 21% @ 1 μM |  | 
17 | O=C(CC(=O)NCCc1ccccc1)NO [PX099268] |  |  | HDAC Inhibition HeLa, percent (HDAC (HeLa cell extract); @ 10 μM): 18% @ 10 μM
18 | CN(C)c1ccc(C=CC(=O)NCCCCCC(=O)NO)cc1 [PX105533] |  |  | IC50 (HDAC (HeLa cell extract); [2]): 18 nM
19 | CN(CCCC(=O)NO)C(=O)/C=C/C=C/c1ccccc1 [PX105668] |  |  | IC50 (HDAC (HeLa cell extract); [1]): > 10000 nM

Row | SMILES | HDAC Inhibition HeLa, percent (HDAC (HeLa cell extract); @ 1 μM) | HDAC Inhibition HeLa, percent (HDAC (HeLa cell extract); @ 500 nM) | further results
20 | COc1ccc(/C=C/C=C/C(=O)NCCCC(=O)NO)cc1 [PX105670] | 29% @ 1 μM |  | 
21 | O=C(/C=C/C=C/c1ccc(Br)cc1)NCCCC(=O)NO [PX105816, (2E)(4E)-5-(4-Bromophenyl)penta-2,4-dienoic acid (3-hydroxycarbamoylpropyl)amide] |  | 20% @ 500 nM | 
22 | O=C(/C=C/C=C/c1ccccc1)NCCCCC(=O)NO [PX105832, (2E)(4E)-5-Phenylpenta-2,4-dienoic acid (4-hydroxycarbamoyl-butyl)amide] |  |  | IC50 (HDAC (HeLa cell extract); [1]): 438 nM; IC50 (HDAC (HeLa cell extract); [2]): 438 nM
23 | O=C(/C=C/C=C/c1ccc(Cl)cc1)NCCCC(=O)NO [PX105845, (2E)(4E)-5-(4-Chlorophenyl)-penta-2,4-dienoic acid (3-hydroxycarbamoylpropyl)-amide] |  | 22% @ 500 nM | 
24 | O=C(/C=C\C=C\c1ccc(Br)cc1)NCCCC(=O)NO [PX105846, (2Z)(4E)-5-(4-Bromophenyl)penta-2,4-dienoic acid (3-hydroxycarbamoyl-propyl)amide] |  | 46% @ 500 nM | 
25 | O=C(/C=C/c1ccccc1)NCCCCCC(=O)NO [PX106517, N-(5-Hydroxycarbamoylpentyl)-3-phenylacrylamide] |  |  | IC50 (HeLa cells): 470 nM; IC50 (HDAC (HeLa cell extract); [1]): 83 nM; IC50 (HDAC (HeLa cell extract); [3]): 83 nM
26 | Nc1nonc1C(=O)NCCCCCC(=O)NO [PX106519, 4-Aminofurazan-3-carboxylic acid (5-hydroxycarbamoylpentyl)amide] |  | 46% @ 500 nM | 
27 | O=C(/C=C/c1ccncc1)NCCCCCC(=O)NO [PX106521, (E)-N-(5-Hydroxycarbamoylpentyl)-3-pyridin-4-yl-acrylamide oxalate] |  |  | IC50 (HeLa cells): 46000 nM; IC50 (HDAC (HeLa cell extract); [1]): 138 nM
28 | CC(/C=C/c1ccccc1)=C\C(=O)NCCCCCC(=O)NO [PX106526, (2E,4E)-3-Methyl-5-phenylpenta-2,4-dienoic acid (5-hydroxycarbamoylpentyl)-amide] |  |  | IC50 (HeLa cells): 2100 nM
29 | O=C(/C=C/c1ccccn1)NCCCCCC(=O)NO [PX106528, (E)-N-(5-Hydroxycarbamoylpentyl)-3-pyridin-2-yl-acrylamide oxalate] |  | 67% @ 500 nM | 
30 | O=C(CCCCCNC(=O)CCCc1ccccc1)NO [PX116210, N-Hydroxy-6-[(4-phenylbutanoyl)amino]hexanamide] |  | 19% @ 500 nM | 
31 | O=C(CCCCCNC(=O)c1ccoc1)NO [PX116219, Furan-3-carboxylic acid (5-hydroxycarbamoyl-pentyl)-amide] |  | 26% @ 500 nM | 
32 | O=C(/C=C/C=C/c1ccco1)NCCCCCC(=O)NO [PX116230] |  |  | HDAC Inhibition (IC50 unless otherwise specified) HeLa (HDAC (HeLa cell extract)): insoluble
33 | O=C(/C=C/c1cccnc1)NCCCCCC(=O)NO [PX116231, E-N-(5-Hydroxycarbamoyl-pentyl)-3-pyridin-3-yl-acrylamide oxalate] |  | 51% @ 500 nM | 
34 | O=C(CCCCCCC(=O)NCCc1nc2ccccc2[nH]1)NO [PX116241, N^1-[2-(1H-Benzimidazol-2-yl)ethyl]-N^8-hydroxyoctanediamide] |  | 39% @ 500 nM | IC50 (HeLa cells): 56000 nM
35 | O=C(/C=C/c1ccc(NC(=O)c2ccc3ccccc3c2)cc1)NO [PX116246, Naphthalene-2-carboxylic acid [4-(2-hydroxycarbamoyl-vinyl)-phenyl]-amide] |  | 52% @ 500 nM | 
36 | O=C(/C=C/c1ccc(NC(=O)c2ccccc2)cc1)NO [PX117231, N-[4-(2-Hydroxycarbamoyl-vinyl)-phenyl]-benzamide] |  | 72% @ 500 nM | percent HDAC inhibition at the stated concentration (HDAC (HeLa cell extract); comparative tables, @ 1 μM): 72% @ 1 μM
37 | O=C(CCc1ccc(NC(=O)c2ccccc2)cc1)NO [PX117232, N-[4-(2-Hydroxycarbamoyl-ethyl)-phenyl]-benzamide] |  | 43% @ 500 nM | percent HDAC inhibition at the stated concentration (HDAC (HeLa cell extract); comparative tables, @ 1 μM): 43% @ 1 μM
38 | O=C(CCCCCCC(=O)Nc1ccccc1)NO [SAHA, Suberoylanilide Hydroxamic Acid, reference compound] |  |  | IC50 (HeLa cells): 2200 nM
